Data published in PMC7347136 (PLoS ONE, 2020).
Read-outs that look alike come from different tables or passages of the source.

Legend:
[1] = system: Nomo-1; assay: Resazurin reduction cell viability assay; assay type: cell-based; details: Homo sapiens
Method: (§1) Solid tumor cell lines were seeded in 100 μl medium into 96-well plates at an appropriate cell number determined by a cell dilution assay (Cal51–2000 cells/well; Colo205, MCF10A and 184A1–3000 cells/well and MDA-MB-468, HCC1954–4000 cells/well). AML suspension cells were seeded in 96-well plates at approximately 3000 cells per well. Cells were incubated overnight at 37°C, 5% CO2. The following day, 100 μl fresh medium containing increasing concentrations of appropriate compound was added and the cells were incubated for up to 72 h at 37°C, 5% CO2. For pulse treatment of solid (adherent) tumor cell lines, medium was aspirated and replaced with fresh drug-free medium. For pulse treatment of suspension lines, plates were centrifuged at 478 xg for 5 min at the end of the incubation period with compound, medium containing compound was carefully aspirated and replaced with fresh compound-free medium. A total of 72 h after the start of treatment, 20 μl of a 10X stock of resazurin sodium salt (Sigma-Aldrich, Dorset, UK) prepared in medium was added to the cells and incubated for up to 3 h. […] was measured on the Wallac Victor plate reader (Cambridge, UK) at 544–595 nm. IC50/70/90 calculations were determined in XLFit.

[2] = system: HCC1954; assay: Resazurin reduction cell viability assay; assay type: cell-based; details: Homo sapiens
Method: as §1

[3] = system: MDA-MB-468; assay: Resazurin reduction cell viability assay; assay type: cell-based; details: Homo sapiens
Method: as §1

[4] = system: Kasumi-1; assay: Resazurin reduction cell viability assay; assay type: cell-based; details: Homo sapiens
Method: as §1

[5] = system: ML-2; assay: Resazurin reduction cell viability assay; assay type: cell-based; details: Homo sapiens
Method: as §1

[6] = system: Cal51; assay: Resazurin reduction cell viability assay; assay type: cell-based; details: Homo sapiens
Method: as §1

[7] = biological target: T1, RET (Homo sapiens, UniProt P07949); assay: Carna kinase panel screen; assay type: biochemical; details: read-out: % Inhibition ± SD
T1 construct: purchased Carna Biosciences
T1 sequence (P07949 29-1114): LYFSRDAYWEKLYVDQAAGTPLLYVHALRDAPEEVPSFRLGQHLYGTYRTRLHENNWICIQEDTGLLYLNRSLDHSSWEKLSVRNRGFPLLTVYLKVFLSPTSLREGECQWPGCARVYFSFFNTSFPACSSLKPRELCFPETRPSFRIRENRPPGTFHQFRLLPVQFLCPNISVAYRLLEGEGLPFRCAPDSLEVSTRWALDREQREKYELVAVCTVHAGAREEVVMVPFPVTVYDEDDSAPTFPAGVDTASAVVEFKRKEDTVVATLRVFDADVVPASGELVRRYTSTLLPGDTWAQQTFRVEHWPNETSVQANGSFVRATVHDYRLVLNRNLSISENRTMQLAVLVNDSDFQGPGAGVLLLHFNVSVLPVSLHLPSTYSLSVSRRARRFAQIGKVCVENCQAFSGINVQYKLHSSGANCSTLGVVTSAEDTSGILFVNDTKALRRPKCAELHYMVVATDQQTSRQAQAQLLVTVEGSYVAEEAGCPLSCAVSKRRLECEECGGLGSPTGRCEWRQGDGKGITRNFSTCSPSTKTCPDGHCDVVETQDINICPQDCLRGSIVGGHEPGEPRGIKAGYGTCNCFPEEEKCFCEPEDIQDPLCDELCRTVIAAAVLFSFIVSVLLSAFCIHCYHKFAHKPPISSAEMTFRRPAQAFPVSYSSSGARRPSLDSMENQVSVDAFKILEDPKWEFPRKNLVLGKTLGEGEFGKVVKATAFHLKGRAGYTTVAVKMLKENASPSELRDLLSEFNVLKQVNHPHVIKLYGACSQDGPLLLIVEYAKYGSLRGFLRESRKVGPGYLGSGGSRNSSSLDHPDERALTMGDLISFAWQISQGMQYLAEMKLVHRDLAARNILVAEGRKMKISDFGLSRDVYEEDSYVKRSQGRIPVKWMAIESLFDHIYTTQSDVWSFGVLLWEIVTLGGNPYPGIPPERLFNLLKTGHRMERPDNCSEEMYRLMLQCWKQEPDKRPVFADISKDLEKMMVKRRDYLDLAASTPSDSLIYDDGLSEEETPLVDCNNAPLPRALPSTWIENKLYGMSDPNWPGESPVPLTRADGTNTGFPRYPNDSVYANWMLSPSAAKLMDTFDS
Outline: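 Read-out is percent inhibition, plotted against compound concentration and fitted to a four-parameter logistic model to give IC50. Curves comprised 10 points, with ATP approximating Km.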

[8] = biological target: T2, BTK (Homo sapiens, UniProt Q06187); assay: Carna kinase panel screen; assay type: biochemical; details: read-out: % Inhibition ± SD
T2 construct: purchased Carna Biosciences
Outline: (§2)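 First, percentage inhibition is computed for each test solution in a 10-point series, ATP held near Km. Then the concentration-inhibition curve is fitted with a four-parameter logistic equation to obtain IC50.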

[9] = biological target: T3, KIT (Homo sapiens, UniProt P10721); assay: Carna kinase panel screen; assay type: biochemical; details: read-out: % Inhibition ± SD
T3 construct: purchased Carna Biosciences
Outline: as §2

[10] = biological target: T4, FLT4 (Homo sapiens, UniProt P35916); assay: Carna kinase panel screen; assay type: biochemical; details: read-out: % Inhibition ± SD
T4 construct: purchased Carna Biosciences
T4 sequence (P35916 25-1363): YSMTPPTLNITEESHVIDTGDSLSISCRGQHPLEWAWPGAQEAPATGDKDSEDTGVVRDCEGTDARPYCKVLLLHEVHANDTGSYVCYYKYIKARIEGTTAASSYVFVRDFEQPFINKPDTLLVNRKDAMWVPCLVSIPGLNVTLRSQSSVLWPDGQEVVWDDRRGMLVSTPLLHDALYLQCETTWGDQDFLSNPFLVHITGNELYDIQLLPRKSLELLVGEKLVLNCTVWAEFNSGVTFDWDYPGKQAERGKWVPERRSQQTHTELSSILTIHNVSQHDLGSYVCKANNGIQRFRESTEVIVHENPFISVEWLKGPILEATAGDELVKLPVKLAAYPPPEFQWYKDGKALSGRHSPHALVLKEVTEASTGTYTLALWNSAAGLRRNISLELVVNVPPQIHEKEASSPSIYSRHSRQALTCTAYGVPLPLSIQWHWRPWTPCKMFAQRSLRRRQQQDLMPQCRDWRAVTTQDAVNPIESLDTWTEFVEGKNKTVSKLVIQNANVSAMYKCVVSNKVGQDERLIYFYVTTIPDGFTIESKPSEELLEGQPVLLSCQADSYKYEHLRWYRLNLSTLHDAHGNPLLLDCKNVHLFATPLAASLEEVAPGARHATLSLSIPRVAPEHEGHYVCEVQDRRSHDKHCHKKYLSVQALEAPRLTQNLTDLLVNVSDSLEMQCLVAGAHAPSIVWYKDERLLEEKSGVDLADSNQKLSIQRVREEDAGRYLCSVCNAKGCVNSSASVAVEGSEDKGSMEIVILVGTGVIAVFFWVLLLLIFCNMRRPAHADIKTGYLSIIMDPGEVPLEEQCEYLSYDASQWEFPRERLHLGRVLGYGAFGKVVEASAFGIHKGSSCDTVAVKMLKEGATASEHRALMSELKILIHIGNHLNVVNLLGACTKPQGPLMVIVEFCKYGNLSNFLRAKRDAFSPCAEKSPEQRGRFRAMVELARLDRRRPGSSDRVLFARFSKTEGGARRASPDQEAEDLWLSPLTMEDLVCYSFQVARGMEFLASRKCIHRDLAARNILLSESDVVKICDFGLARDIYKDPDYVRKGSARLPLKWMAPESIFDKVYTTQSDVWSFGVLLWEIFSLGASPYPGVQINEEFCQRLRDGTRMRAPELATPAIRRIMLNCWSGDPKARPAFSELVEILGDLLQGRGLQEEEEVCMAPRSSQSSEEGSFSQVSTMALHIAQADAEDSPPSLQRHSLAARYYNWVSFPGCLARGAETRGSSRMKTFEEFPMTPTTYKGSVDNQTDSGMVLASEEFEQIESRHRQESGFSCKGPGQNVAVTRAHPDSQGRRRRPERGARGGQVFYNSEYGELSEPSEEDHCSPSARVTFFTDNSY
Outline: as §2

[11] = biological target: T5, MAP3K1 (Homo sapiens, UniProt Q13233); assay: Carna kinase panel screen; assay type: biochemical; details: read-out: % Inhibition ± SD
T5 construct: purchased Carna Biosciences
T5 sequence (Q13233 whole entry): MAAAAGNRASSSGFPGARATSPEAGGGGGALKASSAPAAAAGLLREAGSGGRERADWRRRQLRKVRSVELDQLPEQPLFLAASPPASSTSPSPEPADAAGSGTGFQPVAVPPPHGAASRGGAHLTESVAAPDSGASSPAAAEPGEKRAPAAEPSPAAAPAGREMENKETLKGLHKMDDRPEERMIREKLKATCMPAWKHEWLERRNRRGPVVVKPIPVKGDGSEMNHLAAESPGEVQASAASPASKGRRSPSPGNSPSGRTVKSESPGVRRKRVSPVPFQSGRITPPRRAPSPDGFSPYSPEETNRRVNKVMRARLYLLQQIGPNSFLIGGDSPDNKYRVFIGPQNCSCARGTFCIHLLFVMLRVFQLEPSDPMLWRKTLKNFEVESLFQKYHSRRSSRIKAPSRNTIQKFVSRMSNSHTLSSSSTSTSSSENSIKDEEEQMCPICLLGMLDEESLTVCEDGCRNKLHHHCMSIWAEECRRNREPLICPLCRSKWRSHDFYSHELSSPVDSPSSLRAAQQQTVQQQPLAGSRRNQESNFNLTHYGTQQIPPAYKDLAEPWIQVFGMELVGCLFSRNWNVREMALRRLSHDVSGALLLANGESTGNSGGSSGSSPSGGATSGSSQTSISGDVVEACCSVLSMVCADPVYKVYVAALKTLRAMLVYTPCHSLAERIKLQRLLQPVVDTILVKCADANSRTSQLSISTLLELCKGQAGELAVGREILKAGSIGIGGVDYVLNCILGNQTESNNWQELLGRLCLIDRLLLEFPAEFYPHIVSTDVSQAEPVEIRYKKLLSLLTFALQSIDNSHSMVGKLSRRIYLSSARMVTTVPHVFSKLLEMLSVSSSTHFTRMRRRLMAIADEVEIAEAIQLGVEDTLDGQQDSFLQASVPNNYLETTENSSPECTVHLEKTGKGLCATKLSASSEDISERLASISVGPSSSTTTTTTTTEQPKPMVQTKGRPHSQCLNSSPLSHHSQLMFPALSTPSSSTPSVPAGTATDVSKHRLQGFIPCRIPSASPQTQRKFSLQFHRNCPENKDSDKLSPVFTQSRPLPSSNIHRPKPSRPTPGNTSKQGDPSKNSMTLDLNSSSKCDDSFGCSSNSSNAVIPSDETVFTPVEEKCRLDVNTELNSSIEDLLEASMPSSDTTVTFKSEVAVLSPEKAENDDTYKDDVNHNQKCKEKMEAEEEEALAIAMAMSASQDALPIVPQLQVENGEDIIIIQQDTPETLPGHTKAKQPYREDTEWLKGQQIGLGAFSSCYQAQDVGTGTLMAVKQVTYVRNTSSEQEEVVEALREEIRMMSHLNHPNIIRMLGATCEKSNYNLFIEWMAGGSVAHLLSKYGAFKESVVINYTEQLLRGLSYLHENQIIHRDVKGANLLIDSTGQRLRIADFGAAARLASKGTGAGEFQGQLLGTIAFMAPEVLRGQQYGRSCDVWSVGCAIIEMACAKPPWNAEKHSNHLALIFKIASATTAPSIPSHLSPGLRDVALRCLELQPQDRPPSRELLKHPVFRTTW
Outline: as §2

[12] = biological target: T6, RSK2 (Homo sapiens, UniProt P51812); assay: Carna kinase panel screen; assay type: biochemical; details: read-out: % Inhibition ± SD
T6 construct: purchased Carna Biosciences
Outline: as §2

[13] = biological target: T7, NDR1 (Homo sapiens, UniProt Q15208); assay: Carna kinase panel screen; assay type: biochemical; details: read-out: % Inhibition ± SD
T7 construct: purchased Carna Biosciences
Outline: as §2

[14] = biological target: T8, NEK6 (Homo sapiens, UniProt Q9HC98); assay: Carna kinase panel screen; assay type: biochemical; details: read-out: % Inhibition ± SD
T8 construct: purchased Carna Biosciences
T8 sequence (Q9HC98 whole entry): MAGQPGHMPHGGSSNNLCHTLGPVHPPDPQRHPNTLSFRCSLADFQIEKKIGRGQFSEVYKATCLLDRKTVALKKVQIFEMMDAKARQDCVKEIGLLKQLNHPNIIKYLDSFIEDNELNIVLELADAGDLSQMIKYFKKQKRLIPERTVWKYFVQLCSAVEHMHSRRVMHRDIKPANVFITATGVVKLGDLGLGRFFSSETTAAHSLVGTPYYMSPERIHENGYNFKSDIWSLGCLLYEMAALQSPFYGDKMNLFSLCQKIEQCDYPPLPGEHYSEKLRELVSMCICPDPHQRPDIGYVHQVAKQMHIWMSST
Outline: as §2

[15] = biological target: T9, MUSK (Homo sapiens, UniProt O15146); assay: Carna kinase panel screen; assay type: biochemical; details: read-out: % Inhibition ± SD
T9 construct: purchased Carna Biosciences
Outline: as §2

[16] = biological target: T10, CDK3 (Homo sapiens, UniProt Q00526); assay: Carna kinase panel screen; assay type: biochemical; details: read-out: % Inhibition ± SD
T10 construct: purchased Carna Biosciences
Outline: as §2

[17] = biological target: T11, CHK1 (Homo sapiens, UniProt O14757); assay: Carna kinase panel screen; assay type: biochemical; details: read-out: % Inhibition ± SD
T11 construct: purchased Carna Biosciences
Outline: as §2

[18] = biological target: T12, PHKG1 (Homo sapiens, UniProt Q16816); assay: Carna kinase panel screen; assay type: biochemical; details: read-out: % Inhibition ± SD
T12 construct: purchased Carna Biosciences
T12 sequence (Q16816 whole entry): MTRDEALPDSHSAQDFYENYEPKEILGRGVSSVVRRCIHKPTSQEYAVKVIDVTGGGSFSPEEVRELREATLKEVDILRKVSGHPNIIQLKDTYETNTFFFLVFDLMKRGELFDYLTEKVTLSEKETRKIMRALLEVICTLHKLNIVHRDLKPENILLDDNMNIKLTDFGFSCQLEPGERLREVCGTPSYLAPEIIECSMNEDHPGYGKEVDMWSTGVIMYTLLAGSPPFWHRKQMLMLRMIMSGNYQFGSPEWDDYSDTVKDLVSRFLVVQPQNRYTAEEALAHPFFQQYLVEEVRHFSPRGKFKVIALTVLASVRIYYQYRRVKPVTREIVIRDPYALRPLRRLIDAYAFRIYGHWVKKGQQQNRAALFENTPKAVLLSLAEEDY
Outline: as §2

[19] = biological target: T13, EphA2 (Homo sapiens, UniProt P29317); assay: Carna kinase panel screen; assay type: biochemical; details: read-out: % Inhibition ± SD
T13 construct: purchased Carna Biosciences
Outline: as §2

[20] = biological target: T14, CGK2 (Homo sapiens, UniProt Q13237); assay: Carna kinase panel screen; assay type: biochemical; details: read-out: % Inhibition ± SD
T14 construct: purchased Carna Biosciences
Outline: as §2

[21] = biological target: T15, p38d (Homo sapiens, UniProt O15264); assay: Carna kinase panel screen; assay type: biochemical; details: read-out: % Inhibition ± SD
T15 construct: purchased Carna Biosciences
T15 sequence (O15264 whole entry): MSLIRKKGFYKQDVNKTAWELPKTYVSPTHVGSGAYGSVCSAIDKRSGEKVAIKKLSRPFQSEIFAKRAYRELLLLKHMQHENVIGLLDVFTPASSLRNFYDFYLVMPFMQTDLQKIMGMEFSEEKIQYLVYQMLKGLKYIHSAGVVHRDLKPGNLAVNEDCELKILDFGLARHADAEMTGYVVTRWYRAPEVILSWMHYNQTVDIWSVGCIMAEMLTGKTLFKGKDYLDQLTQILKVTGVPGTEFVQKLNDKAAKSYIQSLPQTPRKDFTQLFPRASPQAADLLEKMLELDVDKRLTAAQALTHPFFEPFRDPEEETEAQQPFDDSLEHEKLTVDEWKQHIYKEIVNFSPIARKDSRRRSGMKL
Outline: as §2

[22] = biological target: T16, CaMK1a (Homo sapiens, UniProt Q14012); assay: Carna kinase panel screen; assay type: biochemical; details: read-out: % Inhibition ± SD
T16 construct: purchased Carna Biosciences
Outline: as §2

[23] = biological target: T17, PKCb1 (Homo sapiens, UniProt P05771); assay: Carna kinase panel screen; assay type: biochemical; details: read-out: % Inhibition ± SD
T17 construct: purchased Carna Biosciences
Outline: as §2

[24] = biological target: T18, SYK (Homo sapiens, UniProt P43405); assay: Carna kinase panel screen; assay type: biochemical; details: read-out: % Inhibition ± SD
T18 construct: purchased Carna Biosciences
Outline: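 IC50 determined by fitting percentage inhibition from a 10-point dilution series, run at ATP approximating Km, to a four-parameter logistic curve.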

[25] = biological target: T19, PKD3 (Homo sapiens, UniProt O94806); assay: Carna kinase panel screen; assay type: biochemical; details: read-out: % Inhibition ± SD
T19 construct: purchased Carna Biosciences
Outline: as §2

[26] = biological target: T20, EGFR[L858R] (Homo sapiens, UniProt P00533, L858R); assay: Carna kinase panel screen; assay type: biochemical; details: read-out: % Inhibition ± SD
T20 construct: purchased Carna Biosciences
Outline: as §2

[27] = biological target: T21, EphB3 (Homo sapiens, UniProt P54753); assay: Carna kinase panel screen; assay type: biochemical; details: read-out: % Inhibition ± SD
T21 construct: purchased Carna Biosciences
Outline: as §2

[28] = biological target: T22, HER4 (Homo sapiens, UniProt Q15303); assay: Carna kinase panel screen; assay type: biochemical; details: read-out: % Inhibition ± SD
T22 construct: purchased Carna Biosciences
Outline: as §2

[29] = biological target: T23, RON (Homo sapiens, UniProt Q04912); assay: Carna kinase panel screen; assay type: biochemical; details: read-out: % Inhibition ± SD
T23 construct: purchased Carna Biosciences
Outline: as §2

[30] = biological target: T24, PLK1 (Homo sapiens, UniProt P53350); assay: Carna kinase panel screen; assay type: biochemical; details: read-out: % Inhibition ± SD
T24 construct: purchased Carna Biosciences
Outline: as §2

[31] = biological target: T25, PKCq (Homo sapiens, UniProt Q04759); assay: Carna kinase panel screen; assay type: biochemical; details: read-out: % Inhibition ± SD
T25 construct: purchased Carna Biosciences
Outline: as §2

[32] = biological target: T26, CK1a (Homo sapiens, UniProt P48729); assay: Carna kinase panel screen; assay type: biochemical; details: read-out: % Inhibition ± SD
T26 construct: purchased Carna Biosciences
Outline: as §2

[33] = 72 h continuous, read-out: 72 h continuous IC50 ± SD
[34] = read-out: 6 h pulse IC50 ± SD, 6 h pulse then 66 h release

For `CC[C@H](Nc1nc(NCc2cnc(C)cc2C)c2ncn(C(C)C)c2n1)[C@@H](C)O` [Fadraciclib, 2-pentanol, 3-[[6-[[(4,6-dimethyl-3-pyridinyl)methyl]amino]-9-(1-methylethyl)-9Hpurin-2-yl]amino]-, (2R,3S)], the IC90 ([1]; 6 h pulse then 66 h release) was 1800 nM, the IC50 [1, 33] was 290 ± 50 nM and the IC50 [1, 34] was 660 ± 110 nM. The IC50 ([2]; read-out: 8 h pulse IC50 ± SD, HCC1954 (HER2 amplified), 8 h pulse, read at 72 h) was 480 ± 50 nM, the IC50 ([2]; HCC1954, continuous 72 h, read-out: continuous IC50 ± SD) was 400 ± 30 nM and the IC50 ([3]; read-out: 8 h pulse IC50 ± SD, MDA-MB-468 (TNBC), 8 h pulse, read at 72 h) was 990 ± 340 nM. The IC50 ([3]; MDA-MB-468, continuous 72 h, read-out: continuous IC50 ± SD) was 380 ± 170 nM, the IC90 ([4]; 6 h pulse then 66 h release) was 570 nM and the IC50 [4, 33] was 230 ± 40 nM. For the same compound, the IC50 [4, 34] was 320 ± 50 nM, the IC90 ([5]; 6 h pulse then 66 h release) was 590 nM and the IC50 [5, 33] was 190 ± 50 nM. It also gave an IC50 [5, 34] of 330 ± 120 nM, an IC50 ([6]; CAL-51, read-out: 8 h pulse IC50 ± SD, Cal51 (TNBC), 8 h pulse, read at 72 h) of 680 ± 200 nM and an IC50 ([6]; CAL-51, Cal51, continuous 72 h, read-out: continuous IC50 ± SD) of 230 ± 40 nM. It also gave an inhibition at 1 µM [7] of 3.4 ± 0.1%, an inhibition at 1 µM [8] of 5.3 ± 0.4% and an inhibition at 1 µM [9] of -2.4 ± 0.1%. For the same compound, the inhibition at 1 µM [10] was 6.3 ± 0.2%, the inhibition at 1 µM [11] was -6.6 ± 0.1% and the inhibition at 1 µM [12] was 5.6 ± 0.1%. It also gave an inhibition at 1 µM [13] of 2 ± 0.1%, an inhibition at 1 µM [14] of -16.6 ± 0.5% and an inhibition at 1 µM [15] of 11.4 ± 0.3%. For the same compound, the inhibition at 1 µM [16] was 95.9%, the inhibition at 1 µM [17] was 1.3% and the inhibition at 1 µM [18] was -15 ± 0.4%. It also gave an inhibition at 1 µM [19] of 3.8%, an inhibition at 1 µM [20] of -12.6 ± 0.5% and an inhibition at 1 µM [21] of -16 ± 0.6%. The inhibition at 1 µM [22] was -14.8 ± 0.2%, the inhibition at 1 µM [23] was -1.9% and the inhibition at 1 µM [24] was 2.2 ± 0.1%. The inhibition at 1 µM [25] was -1.4%, the inhibition at 1 µM [26] was 1.7% and the inhibition at 1 µM [27] was 0%. It also gave an inhibition at 1 µM [28] of -13 ± 0.3%, an inhibition at 1 µM [29] of 1.6 ± 0.1% and an inhibition at 1 µM [30] of 5.7 ± 0.3%. For the same compound, the inhibition at 1 µM [31] was 0.7% and the inhibition at 1 µM [32] was 8.2 ± 0.3%.
